Experimental findings from patent US12653830B2, “Substituted imidazoquinoxaline compounds and uses thereof” (Impact Therapeutics (Shanghai), Inc, priority 2019, dated 2026) are described below.

Structures are written as SMILES. Like-named read-outs stand apart in the source and are kept apart here. A value given as a limit tells only on which side of the number the result lay.

Assay [1] deals with T1, ATM kinase (Homo sapiens, UniProt Q13315).
T1 construct: purchased Eurofins 14-933
Briefly: In vitro ATM kinase assay (Cisbio HTRF, p53 substrate). Type of assay: biochemical. The note with it: 30 μM ATP; for inhibition at 0.0001 µM: Conc. 0.1 nM; for inhibition at 0.0001 µM / inhibition at 0.001 µM / inhibition at 0.01 µM: read-out: Inh % (inhibitory effect on ATM kinase activity); for inhibition at 0.001 µM: Conc. 1 nM; for inhibition at 0.01 µM: Conc. 10 nM. On the procedure:
Determination of the Inhibitory Effect In Vitro of the Compound of Example 2 and its Analogues on ATM Using In Vitro ATM Kinase Assay
ATM enzymatic activity was measured using Cisbio's HTRF reagent in a 384-well plate (Greiner, #784075). […] The mixtures were centrifuged at 1000 rpm for 1 minute, and reacted in dark for 30 minutes at room temperature. Then, 5 μL of EDTA termination solution (250 mm) was added to terminate the reaction. After 5 μL of detection mixture (Anti-phospho-p53 (ser15)-K (Cisbio, #61P08KAE, 0.084 ng/μL) and Anti-GST-d2 (Cisbio, #61GSTDLA, 5.00 ng/μL)) was finally added to each well, the mixtures were cultured at room temperature over night, and the fluorescence values at 665 nm and 615 nm were measured on Envision 2104. The final concentration of each reagent of the experiment was as follows: 12.5 mM HEPES (pH8.0), 0.5% glycerol, 0.005% Brij-35, 0.625 mM DTT, 0.0125% BSA, 15 nM p53, 0.25 ng/μL ATM, 30 μM ATP, 2.5 mM Mg(AcO)2, 2.5 mM MnCl2, 62.5 mM EDTA, 0.021 ng/μL Anti-phospho-p53, 1.25 ng/μL Anti-GST-d2.
Relative fluorescence ratio was calculated: Ratio665 nm/615 nm−Ratiobackground, and inhibition rate %=(1−(relative fluorescence ratio of test compound well−relative fluorescence ratio of positive control well)/(relative fluorescence ratio of negative control well−relative fluorescence ratio of positive control well))×100 was calculated. Data were analyzed using GraphPad Prism6.0 and fitted using the curve equation: Y=Bottom+(Top−Bottom)/(1+10^((Log IC50−X)*HillSlope)), and IC50 values were calculated.

Assay [2] has as its system human colon cancer cell SW620. Briefly: MTT proliferation assay in combination with CPT-11, SW620. It is filed as cell-based. The note with it: medium containing 205 nM CPT-11, 5 days, read-out: IC50, inhibition of proliferation of SW620 combined with CPT-11. On the procedure:
Determination of the Inhibitory Effect of the Compound of Example 2 and its Analogues in Combination with CPT-11 on the Proliferation of Human Colon Cancer Cell SW620 Using MTT Assay
The human colon cancer cells SW620 were cultured in RPMI 1640 medium with 10% FBS and used at about 90% confluence for experiments. The SW620 cells were digested with trypsinase and centrifuged at 800 rpm for 5 minutes. The supernatant was discarded and the cell pellets were resuspended with fresh medium (RPMI 1640+10% FBS). The cells were seeded into 96-well cell culture plates with appropriate cell density and incubated at 37° C. overnight in a 5% CO2 incubator. […] The first concentration was 1 μM or 0.333 μM, the last concentration was DMSO negative control (0 μM). 5 μL of solutions of each concentration was added to 120 μL of medium (a 25 times dilution) and mixed by shaking. The cells were cultured overnight and the culture medium was replaced with 195 μL/well of fresh medium containing 205 nM CPT-11 and 5 μL/well of medium containing the test compound (the final concentration of DMSO was 1%). The culture plates were returned to incubator and cultured at 37° C., 5% CO2 for 5 days. At the day of experiment, medium was discarded and replaced with 100 μL of fresh serum-free DMEM medium containing MTT (0.5 mg/mL), and the culture was continued. 4 hours later, the medium was discarded and replaced with 100 μL/well of DMSO, the plate was shaken for 10 minutes in dark and the absorbance was measured at the wavelengths of 552 and 690 nm using a multi-function plate reader. Data were analyzed by Graph Pad Prism 6.0. The inhibitory effects of compounds on cell proliferation were plotted based on cell viability vs. the logarithm of compound concentration. Cell viability %=(ODcompound−ODbackground)/(ODDMSO−ODbackground)×100.
Table 3 summarizes the inhibitory effect data (IC50) of some compounds combined with CPT-11 on the proliferation of human colon cancer cell SW620.

For assay [3], the system named is human breast cancer cell MDA-MB-468. Briefly: MTT proliferation assay, MDA-MB-468. The note with it: Homo sapiens, MDA-MB-468, 168 h, 7 days, single agent, read-out: IC50, inhibition of proliferation of MDA-MB-468. Type of assay: cell-based. The method, then: Determination of the Inhibitory Effect of the Compound of Example 2 and its Analogues on the Proliferation of Human Breast Cancer Cell MDA-MB-468 Using MTT Assay
The human breast cancer cells MDA-MB-468 were cultured in RPMI 1640 medium with 10% FBS and used at 90% confluence. The MDA-IVB-468 cells were digested with trypsinase and centrifuged at 800 rpm for 5 minutes. The supernatant was discarded and the cell pellets were resuspended with fresh medium and counted. Cells were seeded to 96-well cell culture plates with appropriate cell density and incubated overnight at 37° C., 5% CO2. […] 5 μL of solutions of each concentration was added to 120 μL of medium (diluted by 25 times) and mixed by shaking. The culture medium of cells cultured overnight was discarded and replaced with 195 μL/well of fresh medium (RPMI 1640+5% FBS) and 5 μL/well of diluted medium containing the test compound of corresponding concentrations (the final concentration of DMSO was 1%), and the culture plate was then returned to 5% CO2 incubator at 37° C. for 7 days (on the fourth day, dressing was changed once and culture was continued). On the day of experiment, culture medium was discarded and replaced with 100 μL/well of fresh serum-free DMEM medium containing MTT (0.5 mg/mL), and the culture was continued. After 4 hours, medium was discarded and replaced with 100 μL/well of DMSO, the plates were shaken for 10 minutes in darkness and the absorbance was measured at the wavelengths of 552 and 693 nm using a multi-function plate reader. Graph Pad Prism 6.0 was used to analyze the data. The inhibitory effects of compounds on cell proliferation were plotted based on cell viability vs. the logarithm of compound concentration. Cell viability %=(ODcompound−ODbackground)/(ODDMSO−ODbackground)×100.
Table 4 summarizes the inhibitory effect data (IC50) of some compounds on the proliferation of human breast cancer cell MDA-MB-468.

T1 sequence (Q13315 whole entry): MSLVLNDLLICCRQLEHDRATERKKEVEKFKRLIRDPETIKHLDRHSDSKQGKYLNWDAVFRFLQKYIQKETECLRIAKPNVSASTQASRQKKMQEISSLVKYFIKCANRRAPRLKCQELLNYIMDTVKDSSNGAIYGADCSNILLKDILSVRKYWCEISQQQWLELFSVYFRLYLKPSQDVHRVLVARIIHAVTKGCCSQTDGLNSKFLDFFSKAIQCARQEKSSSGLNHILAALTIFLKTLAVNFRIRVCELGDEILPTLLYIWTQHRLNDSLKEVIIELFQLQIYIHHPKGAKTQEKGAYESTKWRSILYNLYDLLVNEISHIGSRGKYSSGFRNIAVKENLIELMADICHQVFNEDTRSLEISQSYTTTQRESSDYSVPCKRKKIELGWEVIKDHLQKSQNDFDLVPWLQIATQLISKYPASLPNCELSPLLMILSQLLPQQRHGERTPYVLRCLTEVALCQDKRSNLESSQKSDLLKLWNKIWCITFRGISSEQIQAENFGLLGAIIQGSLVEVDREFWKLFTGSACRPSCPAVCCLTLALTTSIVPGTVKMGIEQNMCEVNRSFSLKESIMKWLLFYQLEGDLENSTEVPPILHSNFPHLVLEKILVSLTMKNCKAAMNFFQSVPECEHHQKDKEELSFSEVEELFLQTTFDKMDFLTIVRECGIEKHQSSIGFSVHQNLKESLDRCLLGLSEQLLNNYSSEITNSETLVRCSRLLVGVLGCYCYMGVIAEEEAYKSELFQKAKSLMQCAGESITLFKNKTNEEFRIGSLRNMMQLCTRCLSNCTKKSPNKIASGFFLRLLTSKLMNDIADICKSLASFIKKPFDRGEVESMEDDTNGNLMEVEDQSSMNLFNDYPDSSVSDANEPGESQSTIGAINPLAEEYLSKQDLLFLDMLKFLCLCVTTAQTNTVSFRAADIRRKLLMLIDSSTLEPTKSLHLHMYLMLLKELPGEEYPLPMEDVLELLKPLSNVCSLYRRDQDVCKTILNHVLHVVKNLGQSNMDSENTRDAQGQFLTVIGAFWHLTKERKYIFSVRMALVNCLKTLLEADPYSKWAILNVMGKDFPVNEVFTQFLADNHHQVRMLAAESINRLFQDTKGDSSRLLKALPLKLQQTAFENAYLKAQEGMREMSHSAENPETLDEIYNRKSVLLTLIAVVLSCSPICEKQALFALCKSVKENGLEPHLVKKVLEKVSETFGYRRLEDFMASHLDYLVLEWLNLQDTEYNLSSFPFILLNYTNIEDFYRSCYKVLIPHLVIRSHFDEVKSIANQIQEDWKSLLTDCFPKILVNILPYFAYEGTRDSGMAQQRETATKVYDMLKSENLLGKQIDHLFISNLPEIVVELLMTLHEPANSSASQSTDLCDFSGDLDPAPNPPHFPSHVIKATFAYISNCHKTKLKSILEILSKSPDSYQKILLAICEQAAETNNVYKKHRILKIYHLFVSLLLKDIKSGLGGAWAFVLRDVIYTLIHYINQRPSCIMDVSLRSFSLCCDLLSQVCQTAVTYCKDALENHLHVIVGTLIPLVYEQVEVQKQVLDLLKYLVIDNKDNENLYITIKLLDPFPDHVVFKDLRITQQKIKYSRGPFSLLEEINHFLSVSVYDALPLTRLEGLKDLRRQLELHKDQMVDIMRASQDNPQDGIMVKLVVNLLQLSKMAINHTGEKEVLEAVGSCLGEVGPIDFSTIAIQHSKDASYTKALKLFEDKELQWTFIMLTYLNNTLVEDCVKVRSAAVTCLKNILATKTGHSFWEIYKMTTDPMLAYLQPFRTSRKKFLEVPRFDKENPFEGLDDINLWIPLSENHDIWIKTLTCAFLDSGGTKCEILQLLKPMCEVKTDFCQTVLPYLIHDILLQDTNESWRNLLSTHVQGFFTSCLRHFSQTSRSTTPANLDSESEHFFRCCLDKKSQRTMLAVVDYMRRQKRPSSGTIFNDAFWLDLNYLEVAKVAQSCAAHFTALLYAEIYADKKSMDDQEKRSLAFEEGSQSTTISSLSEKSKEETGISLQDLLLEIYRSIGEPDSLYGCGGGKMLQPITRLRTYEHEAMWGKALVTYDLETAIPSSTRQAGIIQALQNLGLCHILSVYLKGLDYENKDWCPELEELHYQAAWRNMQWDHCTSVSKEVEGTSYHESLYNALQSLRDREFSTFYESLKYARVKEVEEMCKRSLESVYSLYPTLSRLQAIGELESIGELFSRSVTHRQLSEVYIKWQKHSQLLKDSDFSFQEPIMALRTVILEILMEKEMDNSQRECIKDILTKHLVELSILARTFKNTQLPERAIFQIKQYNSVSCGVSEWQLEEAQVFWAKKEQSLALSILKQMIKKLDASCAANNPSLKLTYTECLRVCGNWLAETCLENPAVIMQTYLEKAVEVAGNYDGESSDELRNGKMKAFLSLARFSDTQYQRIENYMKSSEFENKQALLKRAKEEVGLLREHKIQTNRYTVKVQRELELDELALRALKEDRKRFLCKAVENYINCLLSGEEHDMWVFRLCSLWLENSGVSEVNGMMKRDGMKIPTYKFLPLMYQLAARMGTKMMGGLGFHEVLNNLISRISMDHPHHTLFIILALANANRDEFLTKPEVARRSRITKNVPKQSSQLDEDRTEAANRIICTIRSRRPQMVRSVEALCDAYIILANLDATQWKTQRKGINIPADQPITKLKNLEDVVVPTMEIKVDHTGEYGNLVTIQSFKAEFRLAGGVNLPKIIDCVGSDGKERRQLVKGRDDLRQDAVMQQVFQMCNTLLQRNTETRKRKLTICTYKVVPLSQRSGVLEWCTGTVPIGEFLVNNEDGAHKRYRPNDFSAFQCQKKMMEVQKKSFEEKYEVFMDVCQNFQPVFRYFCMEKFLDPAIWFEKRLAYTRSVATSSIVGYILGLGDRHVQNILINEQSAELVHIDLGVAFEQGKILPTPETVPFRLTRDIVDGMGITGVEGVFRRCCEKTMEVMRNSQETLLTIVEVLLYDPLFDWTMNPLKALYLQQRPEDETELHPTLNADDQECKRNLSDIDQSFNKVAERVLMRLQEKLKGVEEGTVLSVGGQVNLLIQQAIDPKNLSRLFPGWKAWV

Turning to `Cc1nc(C2CCOCC2)n2c1cnc1ccc(-c3ccc(N4CCC(N(C)C)CC4)c(F)c3)cc12` [Example 6, N,N-dimethyl-1-(2-fluoro-4-(3-methyl-1-(tetrahydro-2H-pyran-4-yl)imidazo[1,5-a]quinoxalin-8-yl)phenyl)piperidin-4-amine], in assay [1], the inhibition at 0.0001 µM is 33%, the inhibition at 0.001 µM worked out at 93% and the inhibition at 0.01 µM worked out at 99%. The IC50 in assay [2] came out at 12.6 nM. Further, the IC50 in assay [3] worked out at 11.6 nM.

As for `Cc1nc(C2CCOCC2)n2c1cnc1ccc(-c3ccc(N4CCC(N(C)C)CC4)c(Cl)c3)cc12` [Example 7, N,N-dimethyl-1-(2-chloro-4-(3-methyl-1-(tetrahydro-2H-pyran-4-yl)imidazo[1,5-a]quinoxalin-8-yl)phenyl)piperidin-4-amine], in assay [1], the inhibition at 0.0001 µM is 18%, the inhibition at 0.001 µM amounted to 86% and the inhibition at 0.01 µM was 96%. For the same molecule, the IC50 in assay [2] is 25.9 nM. The IC50 in assay [3] amounted to 22.6 nM.

In the case of `Cc1nc(C2CCOCC2)n2c1cnc1ccc(-c3ccc(N4CCC(N(C)C)CC4)c(C(F)(F)F)c3)cc12` [Example 8], in assay [1], the inhibition at 0.0001 µM is 27%, the inhibition at 0.001 µM is 94% and the inhibition at 0.01 µM is 99%. Besides, the IC50 in assay [2] was found to be 24.1 nM. The IC50 in assay [3] was found to be 24.8 nM.

As for `Cc1nc(C2CCOCC2)n2c1cnc1ccc(-c3ccc(N4CCC(N)CC4)c(C(F)(F)F)c3)cc12` [Example 9, 1-(4-(3-methyl-1-(tetrahydro-2H-pyran-4-yl)imidazo[1,5-a]quinoxalin-8-yl)-2-(trifluoromethyl)phenyl)piperidin-4-amine], in assay [1], the inhibition at 0.0001 µM was 28%, the inhibition at 0.001 µM was 96% and the inhibition at 0.01 µM came to 99%. For the same molecule, the IC50 in assay [2] worked out at 24 nM. Besides, the IC50 in assay [3] was determined as 23.1 nM.

Turning to `CNC1CCN(c2ccc(-c3ccc4ncc5c(C)nc(C6CCOCC6)n5c4c3)cc2C(F)(F)F)CC1` [Example 10, N-methyl-1-(4-(3-methyl-1-(tetrahydro-2H-pyran-4-yl)imidazo[1,5-a]quinoxalin-8-yl)-2-(trifluoromethyl)phenyl)piperidin-4-amine], in assay [1], the inhibition at 0.0001 µM came to 13%, the inhibition at 0.001 µM stood at 74% and the inhibition at 0.01 µM came out at 99%. The IC50 in assay [2] was 16.7 nM. Also, in assay [3], the IC50 came to 16.4 nM.

Turning to `CCNC1CCN(c2ccc(-c3ccc4ncc5c(C)nc(C6CCOCC6)n5c4c3)cc2C(F)(F)F)CC1` [Example 11, N-ethyl-1-(4-(3-methyl-1-(tetrahydro-2H-pyran-4-yl)imidazo[1,5-a]quinoxalin-8-yl)-2-(trifluoromethyl)phenyl)piperidin-4-amine], in assay [1], the inhibition at 0.0001 µM stood at 11%, the inhibition at 0.001 µM came to 78% and the inhibition at 0.01 µM was 97%. The IC50 in assay [2] amounted to 30 nM. Besides, the IC50 in assay [3] was determined as 31.1 nM.

`Cc1nc(C2CCOCC2)n2c1cnc1ccc(-c3ccc(OCCCN4CCCCC4)nc3)cc12` [Example 12, 3-methyl-8-(6-(3-(piperidin-1yl)propoxy)pyridin-3yl)-1-(tetrahydro-2H-pyran-4-yl)imidazo[1,5-a]quinoxaline]: in assay [1], the inhibition at 0.0001 µM was determined as 40%, the inhibition at 0.001 µM worked out at 91% and the inhibition at 0.01 µM was 98%. Further, the IC50 in assay [2] amounted to 15.7 nM. Moreover, in assay [3], the IC50 was determined as 14.4 nM.

Turning to `Cc1nn(C)cc1-c1ccc2ncc3c(C)nc(C4CCOCC4)n3c2c1` [Example 13, 8-(1,3-dimethyl-1H-pyrazol-4-yl)-3-methyl-1-(tetrahydro-2H-pyran-4-yl)imidazo[1,5-a]quinoxaline], the inhibition at 0.01 µM in assay [1] was 15%. Also, the IC50 in assay [2] is > 1000 nM; in assay [3] it was 782 nM.

On to `Cc1nc(N2CCOCC2)n2c1cnc1ccc(-c3ccc(OCCCN(C)C)nc3)cc12` [Example 14, N,N-dimethyl-3-((5-(3-methyl-1-morpholinylimidazo[1,5-a]quinoxalin-8-yl)pyridin-2-yl)oxy)propan-1-amine], for which, in assay [1], the inhibition at 0.01 µM came to 93%. Besides, the IC50 came to 39.7 nM in assay [2] and 26 nM in assay [3].

Regarding `Cc1nc(N2C[C@@H](C)O[C@@H](C)C2)n2c1cnc1ccc(-c3ccc(OCCCN(C)C)nc3)cc12` [Example 15, N,N-dimethyl-3-((5-(1-((2S,6R)-2,6-dimethylmorpholino)-3-methylimidazo[1,5-a]quinoxalin-8-yl)pyridin-2-yl)oxy)propan-1-amine], the IC50 in assay [1] is 0.31 nM; in assay [2] (Homo sapiens, SW-620, 120 h), 9.3 nM; in assay [3], 7.98 nM.

Turning to `Cc1nc(N2CCCCC2)n2c1cnc1ccc(-c3ccc(OCCCN(C)C)nc3)cc12` [Example 16, N,N-dimethyl-3-((5-(3-methyl-1-(piperidin-1-yl)imidazo[1,5-a]quinoxalin-8-yl)pyridin-2-yl)oxy)propan-1-amine], in assay [1], the inhibition at 0.0001 µM is 71%, the inhibition at 0.001 µM was 89% and the inhibition at 0.01 µM is 97%. The IC50 in assay [2] is 8.2 nM. Besides, the IC50 in assay [3] is 10.6 nM.

As to `Cc1nc(N2CCN(C)CC2)n2c1cnc1ccc(-c3ccc(OCCCN(C)C)nc3)cc12` [Example 17, N,N-dimethyl-3-((5-(3-methyl-1-(4-methylpiperazin-1-yl)imidazo[1,5-a]quinoxalin-8-yl)pyridin-2-yl)oxy)propan-1-amine], in assay [1], the inhibition at 0.0001 µM turned out to be 9%, the inhibition at 0.001 µM amounted to 55% and the inhibition at 0.01 µM is 91%. The IC50 in assay [2] was determined as 27.4 nM. For the same molecule, in assay [3], the IC50 came to 20.9 nM.
